Measurements taken from USRE31731E, “Herbicidal 4-trifluoromethyl-4-nitrodiphenyl ethers” (priority 1978, dated 1984).

Key:
Type in all cases: in vivo
Monocots [1] = assay: Herbicidal activity, preemergence, monocot weeds (Table II); conditions: pre-emergence, 336 h, about 2 weeks, read-out: % control (percent of plants killed); for pest or weed control at 2241.7 g/ha: 2 lb./A.; for pest or weed control at 4483.4 g/ha: 4 lb./A.
Experimental: (§1) Using the procedure described below, diphenyl ethers were evaluated for control of the following weeds: […]
(§2) barnyardgrass (Echinochloa crusgalli) crabgrass (Digitaria spp.) nutsedge (Cyperus esculentus)
(§3) At 2 and 4 pounds per acre:
(§4) **Bermudagrass (Cynodon dactylon)
(§5) *downy brome (Bromus tectorum) foxtail (Setaria faberii)
(§6) Johnsongrass (Sorghum halepense) […]
(§7) quackgrass (Agropyron repens)
(§8) *ryegrass (Lolium perenne)
(§9) *yellow millet (Panicum miliaceum)
(§10) The following test procedure is employed. Seeds of selected crops and weeds are planted in soil in flats. For preemergence tests, the flats are treated with the test compound immediately after the planting. For postemergence tests, the seeds are allowed to germinate, and after 2 weeks the flats are treated with the test compound. The compound to be evaluated is dissolved in acetone, diluted with water, and sprayed over the flats using a carrier volume equivalent to 50 gallons per acre at the rate of application (pounds per acre, lb/A.) specified in the tables. About 2 weeks after the application of the test compound, the state of growth of the plants is observed and the phytotoxic effect of the compound is evaluated. Table II gives the average percent control achieved by the test compounds in terms of the percent of the plants which are killed by the compounds.

Dicots [2] = assay: Herbicidal activity, preemergence, dicot weeds (Table II); conditions: pre-emergence, 336 h, about 2 weeks, read-out: % control (percent of plants killed); for pest or weed control at 2241.7 g/ha: 2 lb./A.; for pest or weed control at 4483.4 g/ha: 4 lb./A.
Experimental: as §1
(§11) bindweed (Convolvulus arvensis) curly dock (Remex crispus) velvetleaf (Abutilon theophrasti) wild mustard (Brassica haber)
(§12) At 2 and 4 pounds per acre: […]
(§13) cocklebur (Xanthium pensylvanicum)
(§14) **coffeeweed (Sesbania macrocarpa)
(§15) *curly dock (Rumex crispus)
(§16) *lambsquarters (Chenopodium album) morningglory (Ipomoea purpurea)
(§17) *pigweed (Amaranthus retroflexus)
(§18) **ragweed (Ambrosia artemisiifolia)
(§19) *smartweed (Polygonum pensylvanicum)
(§20) **tomato (Lycopersicon esculentum)
(§21) *wild carrot (Daucus carota)
(§22) *wild mustard (Brassica haber)
as §10

Monocots [3] = assay: Herbicidal activity, postemergence, monocot weeds (Table II); conditions: post-emergence, 336 h, about 2 weeks, read-out: % control (percent of plants killed); for pest or weed control at 2241.7 g/ha: 2 lb./A.; for pest or weed control at 4483.4 g/ha: 4 lb./A.
Experimental: as §1, §2, §3, §4, §5, §6, §7, §8, §9, §10

Dicots [4] = assay: Herbicidal activity, postemergence, dicot weeds (Table II); conditions: post-emergence, 336 h, about 2 weeks, read-out: % control (percent of plants killed); for pest or weed control at 2241.7 g/ha: 2 lb./A.; for pest or weed control at 4483.4 g/ha: 4 lb./A.
Experimental: as §1, §11, §12, §13, §14, §15, §16, §17, §18, §19, §20, §21, §22, §10

rice = assay: Crop tolerance, rice; conditions: postemergence or on transplanted rice; 50% or less kill of crop at rates giving more than 50% kill of weeds
Experimental: as §10
(§23) Following the general test procedure of Example 73, diphenyl ethers are evaluated for significant tolerance (as shown by 50% or less kill of the test crop at levels of application which give more than 50% kill of many or all of the weeds of Example 73) towards some or all of the following common agronomic crops (not all compounds tested against all crops): alfalfa, snapbeans, corn, cotton, cucumbers, peanuts, rape, rice, safflower, soybeans, tomatoes, and wheat.

peanuts = assay: Crop tolerance, peanuts; conditions: postemergence; 50% or less kill of crop at rates giving more than 50% kill of weeds
Experimental: as §10, §23

SMILES	pest or weed control at 2241.7 g/ha (Monocots [1]) [%]	pest or weed control at 4483.4 g/ha (Monocots [1]) [%]	pest or weed control at 2241.7 g/ha (Dicots [2]) [%]	pest or weed control at 4483.4 g/ha (Dicots [2]) [%]	pest or weed control at 2241.7 g/ha (Monocots [3]) [%]	pest or weed control at 4483.4 g/ha (Monocots [3]) [%]	pest or weed control at 2241.7 g/ha (Dicots [4]) [%]	pest or weed control at 4483.4 g/ha (Dicots [4]) [%]	Tolerance to rice (rice)	Tolerance to peanuts (peanuts)
CN(C)c1cc(Oc2ccc(C(F)(F)F)cc2Cl)ccc1[N+](=O)[O-] [Example 20, 2-chloro-α,α,α-trifluoro-p-tolyl-3-dimethylamino-4-nitrophenyl ether]	80	88	93	99	80	78	97	88	Tolerance	
O=[N+]([O-])c1ccc(Oc2ccc(C(F)(F)F)cc2Cl)cc1N1CCOCC1 [Example 28, 2-chloro-α,α,α-trifluoro-p-tolyl-3-morpholino-4-nitrophenyl ether]	79	74	79	95	73	73	100	99		
C#CCCOc1cc(Oc2ccc(C(F)(F)F)cc2Cl)ccc1[N+](=O)[O-] [Example 29]	66	74	84	73	97	79	100	100		
CC(=O)CCOc1cc(Oc2ccc(C(F)(F)F)cc2Cl)ccc1[N+](=O)[O-] [Example 31]	68	74	69	99	68	61	100	100		
CC(=O)C(C)Oc1cc(Oc2ccc(C(F)(F)F)cc2Cl)ccc1[N+](=O)[O-] (centres unmarked) [Example 32]	81	86	81	100	100	86	100	100		
CNC(=O)Oc1cc(Oc2ccc(C(F)(F)F)cc2Cl)ccc1[N+](=O)[O-] [Example 33]	79	53	74	99	65	32	100	98		
O=C(CCl)Nc1cc(Oc2ccc(C(F)(F)F)cc2Cl)ccc1[N+](=O)[O-] [Example 35, 2-chloro-α,α,α-trifluoro-p-tolyl-3-chloroacetamido-4-nitrophenyl ether]	60	40	72	40	63	45	80	98		
O=[N+]([O-])c1ccc(Oc2ccc(C(F)(F)F)cc2Cl)cc1Cl [Example 37, 2-chloro-α,α,α-trifluoro-p-tolyl-3-chloro-4-nitrophenyl ether]	100	99	100	100	100	92	100	100		Tolerance
O=[N+]([O-])c1ccc(Oc2ccc(C(F)(F)F)cc2Cl)cc1OCC1CO1 (centres unmarked) [Example 38]	62	47	68	86	51	43	58	98		
O=[N+]([O-])c1ccc(Oc2ccc(C(F)(F)F)cc2Cl)cc1OCC(O)CO (stereo not drawn) [Example 39, 2-chloro-α,α,α-trifluoro-p-tolyl-3-(2,3-dihydroxypropoxy)-4-nitrophenyl ether]	77	65	80	99	61	64	100	98		
CCCN(CCC)c1cc(Oc2ccc(C(F)(F)F)cc2Cl)ccc1[N+](=O)[O-] [Example 41]	84	60	62	96	56	71	94	95		
CS(=O)(=O)CCOc1cc(Oc2ccc(C(F)(F)F)cc2Cl)ccc1[N+](=O)[O-] [Example 42]	83	62	60	80	63	38	88	98		
CN(CCO)c1cc(Oc2ccc(C(F)(F)F)cc2Cl)ccc1[N+](=O)[O-] [Example 43]	99	0	100	48	61	2	80	47		
CNC(=O)Nc1cc(Oc2ccc(C(F)(F)F)cc2Cl)ccc1[N+](=O)[O-] [Example 44]	0	66	17	96	7	60	10	98		
CCSC(=O)Nc1cc(Oc2ccc(C(F)(F)F)cc2Cl)ccc1[N+](=O)[O-] [Example 45]	68	13	77	58	53	17	78	88		
CCSC(=O)N(C(=O)SCC)c1cc(Oc2ccc(C(F)(F)F)cc2Cl)ccc1[N+](=O)[O-] [Example 46]	34	0	87	20	0	0	4	30		
N#Cc1cc(Oc2ccc(C(F)(F)F)cc2Cl)ccc1[N+](=O)[O-] [Example 47, 2-Chloro-α,α,α-trifluoro-p-tolyl-3-cyano-4-nitrophenyl ether]	80	61	80	40	24	11	84	72		
CC(Oc1cc(Oc2ccc(C(F)(F)F)cc2Cl)ccc1[N+](=O)[O-])C(N)=O (stereo not drawn) [Example 51, 2-chloro-α,α,α-trifluoro-p-tolyl-3-(1-carbamoylethoxy)-4-nitrophenyl ether]	96	79	100	100	86	75	98	100		
CCN(C(=O)NC)c1cc(Oc2ccc(C(F)(F)F)cc2Cl)ccc1[N+](=O)[O-] [Example 55, 2-Chloro-α,α,α-trifluoro-p-tolyl-3-(3-methyl-1-ethylureido)-4-nitrophenyl ether]		91		73	31	69	96	95		
